Test: Half life in air at 10 to 20 ug by HPLC analysis
Type: physicochemical

| SMILES | half-life [h] |
| --- | --- |
| CC[C@@H](O)/C=C/C=C\C/C=C\C/C=C\C=C\[C@@H](O)CCCC(=O)O | 1.5 |
| CC[C@@H](O)/C=C/C=C\C[C@H]1C[C@H]1C/C=C\C=C\[C@@H](O)CCCC(=O)O | 35 |
| CC[C@@H](O)/C=C/C=C\C[C@@H]1C[C@@H]1C/C=C\C=C\[C@@H](O)CCCC(=O)O | 35 |
